Results reported in US8211402B2, “CA-IX specific radiopharmaceuticals for the treatment and imaging of cancer” (Molecular Insight Pharmaceuticals, Inc., priority 2008, dated 2012).

Assays:
CA-II = target: T1, CA-II (Homo sapiens, UniProt P00918); experiment: Inhibition of carbonic anhydrase II (4-nitrophenyl acetate hydrolysis, spectrophotometric at 400 nm); format: biochemical; details: purified human enzyme 30 nM; 9 mM Tris-HCl, 81 mM NaCl, pH 7.4, 25° C.; 10 min preincubation
T1 construct: purchased R&D Systems
Procedure: (§1) Compounds were tested for their ability to inhibit carbonic anhydrase isozymes II and IX in vitro. Purified human enzymes were from R&D Systems (Minneapolis, Minn.). The inhibition constants (Ki) for CA-II and CA-IX were determined by the method of Pocker and Stone. Initial rates of 4-nitrophenyl acetate hydrolysis catalyzed by the different carbonic anhydrase isozymes were measured spectrophotometrically at 400 nm. Solutions of substrate (1×10^−2 to 1×10^−6 M) were prepared in anhydrous acetonitrile. A molar extinction coefficient of 18,000 M^−1·cm^−1 was used for the 4-nitrophenolate formed by hydrolysis under the conditions of the experiment (9 mM Tris-HCl, 81 mM NaCl, pH 7.4, 25° C.). The enzyme concentrations were 100 nM for CA-IX and 30 nM for CA-II. Non-enzymatic hydrolysis rates, determined in the absence of added enzyme, were subtracted from the observed rates. […] Dilutions of inhibitor were added to enzyme solutions and preincubated for 10 min to allow for the formation of the E-I complex prior to the addition of substrate. Acetazolamide was included in all assays as positive controls

CA-IX = target: T2, CA-IX (Homo sapiens, UniProt Q16790); experiment: Inhibition of carbonic anhydrase IX (4-nitrophenyl acetate hydrolysis, spectrophotometric at 400 nm); format: biochemical; details: purified human enzyme 100 nM; 9 mM Tris-HCl, 81 mM NaCl, pH 7.4, 25° C.; 10 min preincubation
T2 construct: purchased R&D Systems
Procedure: as §1

NS(=O)(=O)c1ccc(NC(=S)N[C@@H](CC(=O)O)C(=O)N[C@@H](CC(=O)O)C(=O)NCc2ccc(I)cc2)cc1 [Comparative Example 1]
IC50 (CA-II): 377 nM
IC50 (CA-IX): 77 nM
